One test concerns PANC-1. The test is described as follows: MTT cytotoxicity assay. The conditions noted are these: 72 h. In kind it is cell-based, human. How it is done: (§1) Cell lines. The human primary PDAC cell lines PANC-1 (ATCC CRL 1469); Capan-2 (ATCC HTB-80) and metastatic PDAC cell lines Capan-1 (ATCC HTB-79), AsPC-1 (ATCC CRL-1682), L1210 (ATCC CCL-219), KB (ATCC CCL-17), HeLa, SiHa (ATCC HTB-35), HCT-116 (ATCC CCL-247), DLD-1 (ATCC CCL221), hTERT-HPNE (ATCC CRL-4023), Vero (ATCC CCL-81) were purchased from the ATCC. The cell lines were cultured and maintained in the media as recommended by the supplier. The cell lines were regularly tested for mycoplasma contamination and authenticated. In addition to ATCC cell lines, Dr. Glazer's lab generated patient-derived PDAC cell line, PD002. PD002 Cells were maintained and cultured in DMEM medium supplemented with 20% FBS and 100 IU/mL penicillin and incubated at 37° C. with 5% CO2.
(§2) MTT cytotoxicity assay. To study the effect of treatment with DPAGT1 inhibitors on the growth and proliferation of cells, a fixed number of cells (5×10^4 cells/well, 196 μL) were plated in a 96 well plate. Into each well 5 μL of drug concentration was added. After 72 h of incubation with drugs at 37° C., 5% CO2, 10 μL of MTT solution (5 mg/mL in PBS) was added and incubated another 3 h at 37° C., 5% CO2. The medium was removed, and DMSO (200 μL/well) was added. Viability was assessed on the basis of cellular conversion of MTT into a purple formazan product. The absorbance of the colored formazan product was measured at 570 nm by BioTek Synergy HT Spectrophotometer.
(In general: Tetrazolium dyes change colour on reduction, which living cells bring about.)

The subject of a further test is AsPC-1. The experiment in a line: MTT cytotoxicity assay. The class given is cell-based, human. The conditions noted are these: 72 h. The method, then:
as §1, §2

Another test has as its system Capan-2. The test is described as follows: MTT cytotoxicity assay. The class given is cell-based, human. The conditions noted are these: 72 h. How it is done: as §1, §2
The test system of the next test is DPAGT1 gene. The experiment in a line: RT-qPCR analyses of DPAGT1 expression level. The class given is cell-based. The conditions noted are these: PD002. (In general: Real-time PCR tracks product formation cycle by cycle.)
The target of the next test is T1, DPAGT1 (Human) (Homo sapiens, UniProt Q9H3H5).
T1 construct: made in house; host or cells: Expi293 cells (suspension)
T1 sequence (Q9H3H5 1-408): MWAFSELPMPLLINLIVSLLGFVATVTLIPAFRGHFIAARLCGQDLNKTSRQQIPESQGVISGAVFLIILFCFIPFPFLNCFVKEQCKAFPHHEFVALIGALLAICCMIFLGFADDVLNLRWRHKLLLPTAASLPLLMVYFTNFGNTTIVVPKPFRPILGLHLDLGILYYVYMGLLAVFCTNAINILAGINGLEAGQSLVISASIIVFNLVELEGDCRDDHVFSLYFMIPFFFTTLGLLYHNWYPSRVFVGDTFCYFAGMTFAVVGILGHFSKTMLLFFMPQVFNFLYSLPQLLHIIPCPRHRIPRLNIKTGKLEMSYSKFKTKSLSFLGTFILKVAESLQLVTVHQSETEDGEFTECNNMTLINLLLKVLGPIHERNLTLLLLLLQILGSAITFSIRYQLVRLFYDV
The test is described as follows: DPAGT1 assay. In kind it is biochemical. The method, then: DPAGT1 expression and purification. DPAGT1 was expressed in suspended Expi293 cells for 36 h. The cells were lysed by drawing through a 26 g needle (10 times) and membrane protein was extracted using buffer containing 1% decyl f3-D-maltopyranoside detergent. DPAGT1 was purified using HA-agarose resin and a superdex 200 size exclusion column.

The next test addresses T2, AglH (M. jannaschii) (Methanocaldococcus jannaschii, UniProt Q58513).
T2 sequence (Q58513 1-301): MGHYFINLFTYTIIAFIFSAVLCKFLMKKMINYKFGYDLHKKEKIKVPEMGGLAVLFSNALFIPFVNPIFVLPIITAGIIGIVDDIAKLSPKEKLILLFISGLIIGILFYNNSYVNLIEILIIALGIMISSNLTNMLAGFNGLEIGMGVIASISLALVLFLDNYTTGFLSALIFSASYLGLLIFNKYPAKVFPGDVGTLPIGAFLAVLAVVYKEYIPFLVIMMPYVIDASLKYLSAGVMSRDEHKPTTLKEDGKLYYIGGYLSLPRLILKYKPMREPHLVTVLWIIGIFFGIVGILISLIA
The test is described as follows: AglH assay. The following applies: read-out: IC50 AglH (M. jannaschii).

The subject of a further test is E-cadherin. The test is described as follows: Immunofluorescent staining of E-cadherin. The class given is cell-based.
A further test deals with SiHa. The experiment in a line: Scratch (wound healing) assay. The conditions noted are these: 0.2 μM. The class given is cell-based. How it is done:
(§3) Scratch Assay. A confluent monolayer was formed in 24-well plates. The monolayer was scratched by a sterile 200 μL pipette tip and washed with PBS to remove cell debris. Complete medium with CPPB (5) (0, 0.05, 0.1, 0.2 μM) were added and scratched areas were photographed with microscope. The scratched cells were incubated at 37° C., 5% CO2. After 24 h, medium was removed and cells were stained with a 1:1 mixture of crystal violet and PBS for 5 min., washed with PBS twice, and photographed with microscope. Wound areas were measured and recovered areas were calculated.

Test [1] deals with PD002. The test is described as follows: Scratch (wound healing) assay. The class given is cell-based. The following applies: 0.2 μM, 24 h; untreated PD002 63%. The method, then: as §3
Another test deals with HCT-116. The experiment in a line: Scratch (wound healing) assay. The class given is cell-based. The conditions noted are these: scratch assays. The method, then:
as §3

Test [2] relates to PD002. The experiment in a line: Kinetic proliferation assay (IncuCyte). The class given is cell-based. How it is done:
Kinetic Proliferation Assay. To study the effect of treatment with DPAGT1 inhibitors on the growth and proliferation of cells, a fixed number of cells (2×10^4) were plated in multiple wells of a 96 well plate, incubated for 24 h to let cells settle down. Then, CPPB (5) was added (0-50 μM). Images were obtained every 4 h using an IncuCyte Live-Cell Imaging System (Essen BioScience, Ann Arbor, MI). After 72 h, cell proliferation was quantified using the metric phase object confluence (POC), a measurement of the area of the field of view that is covered by cells, which is calculated by the integrated software.

In the next test the test system is DPAGT1. The experiment in a line: Immunofluorescent staining of DPAGT1 expression. The class given is cell-based.

Entries after “also recorded” stand apart in the source; their conditions may differ.

As for “(2S,3S,4S)-2-((1R)-2-Amino-1-((2S,5R)-5-(2,4-dioxo-3,4-dihydropyrimidin-1(2H)-yl)-4-hydroxy-3-methoxytetrahydrofuran-2-yl)-2-oxoethoxy)-3,4-dihydroxy-N-(4-(4-(4-(trifluoromethoxy)-phenyl)piperidin-1-yl)benzyl)-3,4-dihydro-2H-pyran-6-carboxamide [CPPB]”, the 50% inhibitory concentration (IC50) with PANC-1 was 35 µM; in the test on AsPC-1, 25 µM; in the test with Capan-2 it was 30 µM; on DPAGT1 (Human), 0.2 µM; on AglH (M. jannaschii), 0.15 µM. Also, in the test on DPAGT1 gene, the DPAGT1 gene expression entry is listed as “without significantly decreasing”. Moreover, the “DPAGT1 inhibitory activity (in words)” value at DPAGT1 (Human) is listed as “high nM range DPAGT1 inhibitors”. The “DPAGT1 inhibitory strength relative to I-CPPB” value at DPAGT1 (Human) (CPPB vs. I-CPPB) is on record as “three times stronger”. Moreover, on DPAGT1 (Human) (CPPB vs. tunicamycin), the “DPAGT1 inhibitory activity relative to tunicamycin” value is roughly 7.5 times. Also, the “E-cadherin expression level in PD002” value in the test with E-cadherin (0.05-0.2 μM) was “not noticeably changed”. Further, in the test with E-cadherin (0.05-0.2 μM), the “E-cadherin expression level in Panc-1” value was “slightly increased”. Also, in the test on E-cadherin (0.05-2.0 μM), the “E-cadherin expression levels of PD002, PANC-1, and HCT-116” value is recorded as “not changed significantly”. The “migration of SiHa” value with SiHa is recorded as “strongly inhibited migration”. In addition, the wound-healing rate entry with PD002 [1] is reported as “approximately 20%”. Also, the “cell migration of HCT-116” value in the test with HCT-116 is reported as “not inhibited; also recorded: did not inhibit migration”. In the test with PD002 [2] (50 μM, same as at time 0 h, control (PBS) ca. 70%), the “phase area confluence of PD002 culture after 72 h” value is given as 10-13%. In the test with PD002 [2] (0.2-20 μM), the “cell proliferation inhibited at time 72 h” value is on record as “ca. 20%”. Moreover, the DPAGT1 protein expression result in the test with DPAGT1 is given as “decreased”. Also, the “DPAGT1 expression in pancreatic cancer cell lines” value with DPAGT1 (0.2 μM) was “apparently inhibited”. For the same substance, the “order of decrease of DPAGT1 expression” value in the test on DPAGT1 (0.2 μM) was “PANC-1>PD002>>HCT-116”. In addition, the “DPAGT1 expression levels of HCT-116” value in the test with DPAGT1 (20 μM) is given as “remained high”. Moreover, the “DPAGT1 expression of the pancreatic cancer cell lines at high concentration” value with DPAGT1 (2-20 μM) is “could not completely be inhibited”.

What is called IC50 is the concentration at which inhibition is half-maximal.

The values above are taken from patent publication US12570684B2 (UNIVERSITY OF TENNESSEE RESEARCH FOUNDATION, priority 2020, dated 2026).
